Test results published in ChEMBL document CHEMBL1128624, “Syntheses of -, -monoglycosylceramides and four diastereomers of an -galactosylceramide” (Bioorg Med Chem Lett, 1995).
The source made the active and inactive calls. The calls are words filed in the database; no cut-off is given here.

species on record: Mus musculus; experiment: Antitumor activity against B16-melanoma bearing mice; active; assay type: functional, organism-based

Compound	Activity
CCCCCCCCCCCCCCCCCCCCCC[C@@H](O)C(=O)N[C@@H](CO[C@H]1O[C@@H](CO)[C@H](O)[C@H](O)[C@@H]1O)[C@H](O)[C@H](O)CCCCCCCCCCCC	Active
CCCCCCCCCCCCCCCCCCCCCCC[C@@H](O)C(=O)N[C@@H](CO[C@H]1O[C@@H](CO)[C@H](O)[C@H](O)[C@@H]1O)[C@H](O)[C@H](O)CCCCCCCCCCCC(C)CC (some centres undefined)	Active
CCCCCCCCCCCCCCCCCCCCCC[C@@H](O)C(=O)N[C@@H](CO[C@H]1O[C@@H](CO)[C@H](O)[C@H](O)[C@@H]1O)[C@H](O)[C@H](O)CCCCCCCCCCCC(C)CC (some centres undefined)	Active
CCCCCCCCCCCCCCCCCCCCCC[C@@H](O)C(=O)N[C@@H](CO[C@H]1O[C@@H](CO)[C@H](O)[C@H](O)[C@@H]1O)[C@H](O)[C@H](O)CCCCCCCCCCCC(C)C	Active
